{"source": "patent US20250221922A1", "about": "“ORAL CARE COMPOSITIONS CONTAINING RHAMNOLIPIDS” (Stepan Company, priority 2022, published 2025)", "assay": "Flavor Solubilization (mint flavor oils)", "format": "physicochemical", "conditions": "premix at the solubilization ratio", "description": "The ability of the rhamnolipid mixture to solubilize an oil-based flavorant, such as a mint oil flavorant, was tested. The rhamnolipid composition tested was Sample 3 used above for Porphyromonas gingivalis.\nFunctionality was determined through a series of dilutions using the rhamnolipid mixture as a potential solubilizer component for flavor oils in the absence of synthetic or other solubilizers. The rhamnolipid composition was compared with polysorbate 20, which is a synthetic solubilizer and the industry standard for oil solubilization for flavors. Common mint flavors, such as Mint #244456 and Mint #244455 from Belle Aire Creations, were used as the flavor oils.\nThe rhamnolipid composition was added to each of the flavor oils in increasing amounts in order to determine the solubilizer component to flavor oil ratio at which a clear premix was obtained. Once a clear premix was obtained, that premix was then added to deionized water to ensure that the final solution was crystal clear.", "data": [{"substance": "polysorbate 20", "values": [{"measurement": "appearance of final solution of the premix in deionized water", "value": "crystal clear"}]}]}
